According to ChEMBL document CHEMBL1201862, “PubChem BioAssay data set” (2004):
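Growth conditions: 96-well plates. Treatment: test compound, 48 hours, 5 concentrations. Analysis: linear interpolation between bracketing concentrations; unreached endpoints set to highest concentration. GI50 is the concentration that inhibits growth by half.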 Calls of active or inactive are those of the source. Cut-off read from the data, not from the text of the source: active = GI50 up to about 1.1 µM and inactive = higher.

Experiments:
Experiment in all cases: NCI tumour cell line growth inhibition, 48 h
[1] = system: U-251
[2] = system: LOX IMVI
[3] = system: HCT-116
[4] = system: A549
[5] = system: UACC-257
[6] = system: IGROV-1
[7] = system: NCI-H23
[8] = system: SNB-19
[9] = system: MOLT-4
[10] = system: DLD-1
[11] = system: KM12
[12] = system: Malme-3M
[13] = system: UACC-62
[14] = system: RXF 393
[15] = system: SNB-78
[16] = system: CAKI-1
[17] = system: SF-268
[18] = system: SK-MEL-5
[19] = system: RPMI-8226
[20] = system: A498
[21] = system: OVCAR-5
[22] = system: ACHN
[23] = system: SR
[24] = system: HCT-15
[25] = system: TK-10
[26] = system: DMS-273
[27] = system: HOP-18
[28] = system: M19-MEL
[29] = system: LXFL 529
[30] = system: SK-MEL-2
[31] = system: XF498
[32] = system: OVCAR-3
[33] = system: SNB-75
[34] = system: SK-MEL-28
[35] = system: HL-60
[36] = system: SF-295
[37] = system: SW-620
[38] = system: M14
[39] = system: HOP-92
[40] = system: HT-29
[41] = system: COLO 205
[42] = system: NCI-H226
[43] = system: K562
[44] = system: EKVX
[45] = system: SF-539
[46] = system: SK-OV-3
[47] = system: NCI-H522
[48] = system: NCI-H460
[49] = system: CCRF-CEM
[50] = system: HCC 2998
[51] = system: HOP-62
[52] = system: SN12C
[53] = system: DMS-114
[54] = system: UO-31
[55] = system: OVCAR-4
[56] = system: KM-20L2
[57] = system: 786-0
[58] = system: OVCAR-8

Measured: GI50

OCCN1CCN(CC/C=C2/c3ccccc3Sc3ccc(Cl)cc32)CC1
13.4 µM: [24]
inactive: [1] 12.9 µM | [2] 8.81 µM | [3] 8.47 µM | [4] 15.6 µM | [5] 2.52 µM | [6] 15.2 µM | [7] 15.7 µM | [8] 20.7 µM | [9] 11.4 µM | [10] 13.4 µM | [11] 9.57 µM | [12] 5.33 µM | [13] 2.59 µM | [14] 13.1 µM | [15] 15.8 µM | [16] 10.5 µM | [17] 14.6 µM | [18] 5.89 µM | [19] 9.82 µM | [20] 14.5 µM | [21] 17.1 µM | [22] 16 µM | [23] 12.1 µM | [25] 15.2 µM | [26] 6.05 µM | [27] 1.5 µM | [28] 1.94 µM | [29] 5.74 µM | [30] 14.9 µM | [31] 12.6 µM | [32] 14.7 µM | [33] 3.69 µM | [34] 1.87 µM | [35] 1.76 µM | [36] 18.4 µM | [37] 12 µM | [38] 2.3 µM | [39] 8.45 µM | [40] 2.57 µM | [41] 9.73 µM | [42] 14.6 µM | [43] 2.56 µM | [44] 16.8 µM | [45] 12.9 µM | [46] 15.8 µM | [47] 16.4 µM | [48] 5.93 µM | [49] 8.41 µM | [50] 11.3 µM | [51] 16.1 µM | [52] 13.2 µM | [53] 16.4 µM | [54] 13.3 µM | [55] 17.2 µM | [56] 2.07 µM

CCCCc1c2c(nc3c1CCCC3=O)C(=O)CCC2
> 100 µM: [24]
inactive: [1] > 100 µM | [2] > 100 µM | [3] > 100 µM | [4] > 100 µM | [5] > 100 µM | [6] > 100 µM | [7] > 100 µM | [8] > 100 µM | [9] > 100 µM | [10] > 100 µM | [11] > 100 µM | [12] > 100 µM | [13] > 100 µM | [14] > 100 µM | [15] > 100 µM | [17] > 100 µM | [18] > 100 µM | [19] > 100 µM | [20] > 100 µM | [21] > 100 µM | [22] > 100 µM | [23] > 100 µM | [25] > 100 µM | [26] > 100 µM | [27] > 100 µM | [28] > 100 µM | [29] > 100 µM | [30] > 100 µM | [31] > 100 µM | [32] > 100 µM | [33] 62.4 µM | [34] > 100 µM | [35] > 100 µM | [36] > 100 µM | [37] > 100 µM | [38] > 100 µM | [57] > 100 µM | [39] > 100 µM | [40] > 100 µM | [41] > 100 µM | [42] > 100 µM | [43] > 100 µM | [44] > 100 µM | [45] > 100 µM | [46] > 100 µM | [47] > 100 µM | [48] > 100 µM | [49] > 100 µM | [50] > 100 µM | [51] > 100 µM | [52] > 100 µM | [53] > 100 µM | [54] > 100 µM | [55] > 100 µM | [56] > 100 µM | [58] > 100 µM
